What was measured:
[1] = test system: adults and nymphal stages of the two-spotted mite; assay: Mite Foliage Spray Test; format: in vivo, Tetranychus urticae (Koch); design: key: 1: no mortality; 3: an approximately 50% mortality; 5: 100% mortality; settings: 4 days
Source text: (§1) The test procedures were as follows:
(§2) Compositions were rated on the basis of percent kill with a rating of 1 indicating no mortality; 3 signifying an approximately 50% mortality and 5 indicating 100% mortality at the indicated dosage.

[2] = test system: egg of the two-spotted mite; assay: Mite Ovicide Test; format: in vivo, Tetranychus urticae (Koch); design: key to Mite Ova rating: 1: no mortality; 3: an approximately 50% mortality; 5: 100% mortality; settings: spray on eggs, 4 days
Source text: as §1
The plants were allowed to dry thoroughly.
as §2

[3] = test system: Perennial rye grass, crabgrass, red root pigweed, mustard; assay: Preliminary Herbicide Seed Germination Test; settings: each rated 1 (no injury) to 5 (no seedlings emerged)
[4] = rating/maximum 30: 100 and 1000 ppm, crabgrass omitted
[5] = rating/maximum 15: 100 ppm only, crabgrass omitted
[6] = rating/maximum 20: 100 ppm only, four species
[7] = rating/maximum 40: 100 and 1000 ppm, four species, 10-12 days

Row | SMILES | Mite Adult rating [1] | Mite Ova rating [2] | Herbicide (total preemergence rating) [3, 4] | Herbicide (total preemergence rating) [3, 5] | Herbicide (total preemergence rating) [3, 6] | Herbicide (total preemergence rating) [3, 7]
1 | Cc1cc(C)c(C2=C(OC(=O)c3ccc(Cl)cc3)c3ccccc3C2=O)c(C)c1 [3-(4-Chlorobenzoyloxy)-2-(2',4',6'-trimethylphenyl)indone] | 5 (100% mortality) | 5 (100% mortality) | 24/30 | – | – | –
2 | CCCC(=O)OC1=C(c2c(C)cc(C)cc2C)C(=O)c2ccccc21 [2-(2',4',6'-Trimethylphenyl)-3-(butyryloxy)indone] | 5 (100% mortality) | 5 (100% mortality) | – | 15/15 | – | –
3 | Cc1cc(C)c(C2=C(OC(=O)c3ccco3)c3ccccc3C2=O)c(C)c1 [2-(2',4',6'-Trimethylphenyl)-3-(2-furoyloxy)indone] | 5 (100% mortality) | 5 (100% mortality) | – | – | 17/20 | –
4 | CCCCCCCCCCCCCCCCCC(=O)OC1=C(c2ccccc2)C(=O)c2ccccc21 [2-Phenyl-3-(stearoyloxy)indone] | 1 | 1 | – | – | 4/20 | –
5 | CCCCCCCCCCCCCCCCCC(=O)OC1=C(c2ccccc2Cl)C(=O)c2ccccc21 [2-(2'-Chlorophenyl)-3-(stearoyloxy)indone] | 1 | 5 (100% mortality) | – | – | 4/20 | –
6 | O=C(OC1=C(c2ccccc2)C(=O)c2ccccc21)c1ccccc1 [2-Phenyl-3-(benzoyloxy)indone] | 1 | 1 | – | – | 4/20 | –
7 | COc1ccc(C(=O)OC2=C(c3c(Cl)cccc3Cl)C(=O)c3ccccc32)cc1 [3-(4-Methoxybenzoyloxy)-2-(2',6'-dichlorophenyl)indone] | 5 (100% mortality) | 5 (100% mortality) | 22/30 | – | – | –
8 | CCCCCCCCCCCC(=O)OC1=C(c2ccc(C)cc2C)C(=O)c2ccccc21 [2-(2',4'-Dimethylphenyl)-3-(lauroyloxy)indone] | 5 (100% mortality) | 5 (100% mortality) | – | – | 14/20 | –
9 | Cc1cccc(C)c1C1=C(OC(=O)C(C)(C)C)c2ccccc2C1=O [2-(2',6'-Dimethylphenyl)-3-(pivaloyloxy)indone] | 5 (100% mortality) | 5 (100% mortality) | – | – | – | 31/40
10 | CC(C)(C)C(=O)OC1=C(c2ccccc2Cl)C(=O)c2ccccc21 [2-(2'-Chlorophenyl)-3-(pivaloyloxy)indone] | 5 (100% mortality) | 5 (100% mortality) | – | – | – | 18/40
11 | CCCCCCCCCCCCCCCC(=O)OC1=C(c2ccc(C(C)C)cc2)C(=O)c2ccccc21 [2-(4'-isopropylphenyl)-3-(palmitoyloxy)indone] | 1 | 1 | – | – | 4/20 | –
12 | CCCCCCCCCCCC(=O)OC1=C(c2c(C)cc(C)cc2C)C(=O)c2ccccc21 [2-(2',4',6'-Trimethylphenyl)-3-(dodecanoyloxy)indone] | 5 (100% mortality) | 5 (100% mortality) | – | – | 17/20 | –
13 | Cc1cc(C)c(C2=C(OC(=O)c3cccs3)c3ccccc3C2=O)c(C)c1 [2-(2',4',6'-Trimethylphenyl)-3-(2-thenoyloxy)indone] | 5 (100% mortality) | 5 (100% mortality) | – | – | 18/20 | –
14 | COc1cccc(C(=O)OC2=C(c3c(C)cc(C)cc3C)C(=O)c3ccccc32)c1 [3-(3-Methoxybenzoyloxy)-2-(2',4',6'-trimethylphenyl)indone] | 5 (100% mortality) | 5 (100% mortality) | 25/30 | – | – | –
15 | CCCCC(CC)C(=O)OC1=C(c2ccccc2)C(=O)c2ccccc21 (stereo not drawn) [3-(2-Ethylhexanoyloxy)-2-phenylindone] | 1 | 1 | – | – | 4/20 | –
16 | O=C(OC1=C(c2c(Cl)cccc2Cl)C(=O)c2ccccc21)c1ccc(Cl)c(Cl)c1 [3-(3,4-Dichlorobenzoyloxy)-2-(2',6'-dichlorophenyl)indone] | 5 (100% mortality) | 5 (100% mortality) | – | – | – | 29/40
17 | O=C(OC1=C(c2c(Cl)cccc2Cl)C(=O)c2ccccc21)c1ccccc1 [3-(Benzoyloxy)-2-(2',6'-dichlorophenyl)indone] | 5 (100% mortality) | 5 (100% mortality) | – | – | – | 32/40
18 | Cc1cc(C)c(C2=C(OC(=O)c3ccc(Cl)cc3Cl)c3ccccc3C2=O)c(C)c1 [3-(2,4-Dichlorobenzoyloxy)-2-(2',4',6'-trimethylphenyl)indone] | 5 (100% mortality) | 5 (100% mortality) | – | – | – | 32/40
19 | CCCC(C)C(=O)OC1=C(c2ccc(C)cc2C)C(=O)c2ccccc21 (stereo not drawn) [2-(2',4'-Dimethylphenyl)-3-(2-methylpentanoyloxy)indone] | 3 (an approximately 50% mortality) | 5 (100% mortality) | – | – | 14/20 | –
20 | O=C(OC1=C(c2c(Cl)cccc2Cl)C(=O)c2ccccc21)c1ccc(Cl)cc1Cl [3-(2,4-Dichlorobenzoyloxy)-2-(2',6'-dichlorophenyl)indone] | 5 (100% mortality) | 5 (100% mortality) | – | – | – | 28/40
21 | Cc1cc(C)c(C2=C(OC(=O)N(C)C3CCCCC3)c3ccccc3C2=O)c(C)c1 [2-(2',4',6'-Trimethylphenyl)-3-(N-cyclohexyl-N-methylcarbamoyloxy)indone] | 5 (100% mortality) | 5 (100% mortality) | – | – | 16/20 | –
22 | Cc1cc(C)c(C(=O)OC2=C(c3c(Cl)cccc3Cl)C(=O)c3ccccc32)c(C)c1 [3-(2,4,6-Trimethylbenzoyloxy)-2-(2',6'-dichlorophenyl)indone] | 1 | 1 | – | 6/15 | – | –
23 | COc1ccc(C(=O)OC2=C(c3c(C)cc(C)cc3C)C(=O)c3ccccc32)cc1 [3-(4-Methoxybenzoyloxy)-2-(2',4',6'-trimethylphenyl)indone] | 3 (an approximately 50% mortality) | 5 (100% mortality) | 21/30 | – | – | –
24 | CCCC(C)C(=O)OC1=C(c2ccccc2Cl)C(=O)c2ccccc21 (stereo not drawn) [2-(2'-Chlorophenyl)-3-(2-methylpentanoyloxy)indone] | 5 (100% mortality) | 5 (100% mortality) | – | – | 4/20 | –
25 | O=C(OC1=C(c2c(Cl)cccc2Cl)C(=O)c2ccccc21)c1ccc([N+](=O)[O-])cc1 [3-(4-Nitrobenzoyloxy)-2-(2',6'-dichlorophenyl)indone] | 5 (100% mortality) | 5 (100% mortality) | 25/30 | – | – | –
26 | Cc1ccccc1C1=C(OC(=O)C(C)(C)C)c2ccccc2C1=O [2-(2'-Methylphenyl)-3-(pivaloyloxy)indone] | 5 (100% mortality) | 5 (100% mortality) | – | – | – | 20/40

Reference: patent US4091006A, “Esters of 3-hydroxyindone compounds” (priority 1975, dated 1978)
